Test system: Phytophthora infestans
Assay type: in vivo
Conditions: 63 ppm active ingredient; tomato leaves infected one week after application; assessed after 6 days; untreated plants 100%

## CO/N=C(/C(=O)NCCc1ccc(OC)c(OC)c1)c1ccc(Cl)cc1 [comparative active ingredient]
  disease level: 40%
